# Reference: patent US20200181284A1, “EPIGENETIC INHIBITORS FOR SENSITIZING HEMATOLOGIC OR OTHER MALIGNANCIES TO GLUCOCORTICOID THERAPY” (UNIVERSITY OF SOUTHERN CALIFORNIA, priority 2017, published 2020)
# How the values were obtained:
# [1] = test system: lung, breast and glioblastoma cancers; details: dosages of 5-50 mg/kg; cited from earlier work
# [2] = test system: GR target genes in NALM6 cells; assay: RT-qPCR of GR target genes in NALM6 cells; type: cell-based, human; details: NALM6 cells, KDM inhibitor
# Description: RNA was isolated using TRIzol (Invitrogen) according to the manufacturer's instructions. Reverse transcription reaction was performed using Superscript III (ThermoFisher) according to specifications with 1 μg of total RNA as template. Quantitative PCR amplification of the resulting cDNA was performed on a Roche LightCycler 480 using SYBR green I master mix (Roche). mRNA levels were normalized to the level of b-actin mRNA.
# FIGS. 40A, 40B, 40C, 40D-1, 40D-2, 40D-3, and 40D-4 show Aurora kinase B inhibitors sensitizing NALM6 cells to GC-induced cell death. As shown in FIGS. 40A and 40B, NALM6 cells were treated with the indicated dex concentration in addition to 0.75 μM ZM447439 (FIG. 40A), 16 nM AZD2811 (FIG. 40B), or equivalent volume of vehicle DMSO for 72 h, and cell survival was measured by a fluorescence metabolic assay. In each condition, the value measured with dex was normalized to the fluorescence value measured with ethanol. Percentage of survival is shown as the mean±SEM of 4 independent experiments and p-values for individual dex concentrations were calculated using a paired t-test. *p≤0.05, **p≤0.01, * * *p≤0.001. F-test comparing the two curves: p≤0.001. Insets show the EC50s that were calculated as the concentration at which half the cells remained alive, compare to vehicle controls. Error bars depict the SEM of 4 independent experiments and p-values were calculated to compare AURKB inhibitor treatment to DMSO using a paired t-test ** p≤0.01, * * *p≤0.001. […] The indicated proteins were then examined by immunoblot. As shown in FIGS. 40D-1, 40D-2, 40D-3, and 40D-4, NALM6 cells pre-treated with AZD2811 (16 nM) or DMSO for 24 h, were then treated for 8 h with 100 nM dex or ethanol. mRNA levels for the indicated GR target genes were measured by RT-qPCR and normalized to β-actin mRNA levels.
# FIGS. 54A, 54B, and 54C highlight the GR Target genes that require G9a and GLP as coactivators.
# G9a methylation = G9a methylation level in NALM6 cells treated with KDM inhibitors; type: cell-based, human
# Excerpt: There are two distinct families of KDM with distinct catalytic mechanisms (FIG. 50B). We tested one inhibitor for each family: OG-L002 inhibits the two members of the LSD family of KDM, and JIB-04 inhibits several members of the large JmjC family of KDM, including members of the KDM2, KDM3, and KDM4 subfamilies. We propose that there is an equilibrium between the enzymes that methylate G9a and GLP (in this case they methylate themselves) and the KDM enzymes to maintain a moderate level of G9a/GLP methylation (FIGS. 50C-1, 50C-2), and that inhibition of the KDMs that normally demethylate G9a and GLP (currently unknown) will increase the level of G9a/GLP methylation and thereby enhance the coactivator activity of G9a/GLP, the GC activation of the cell death genes, and GC-induced cell death in B-ALL cells. Thus, as a first step to identify the G9a/GLP-specific demethylases, we treated NALM6 cells with the two inhibitors named above. OG-L002 had no effect on the level of G9a methylation, but JIB-04 increased the level of G9a methylation in NALM6 cells (FIG. 50D).
structure (smiles),measurement,setting,value
"Clc1ccc(N/N=C(\c2ccccc2)c2ccccn2)nc1 [JIB-04, 5-chloro-N-[(E)-[phenyl(pyridin-2-yl)methylidene]amino]pyridin-2-amine]",efficacy in mouse xenograft models,[1],effective
same,dex-induced expression of FKBPS (independent of G9a and GLP),[2],no effect
same,"dex-induced expression of G9a/GLP-dependent GR target genes (TXNIP, GILZ, and NFKBIA)",[2],enhanced
same,level of G9a methylation,G9a methylation,increased
